Data from PubChem BioAssay (NCI).
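Following 48 hours of exposure in 96-well plates, responses at five concentrations were used to interpolate endpoints linearly. Here, GI50 denotes the concentration required for 50% inhibition of growth. TGI denotes the concentration required for complete inhibition of growth.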

Experiments:
Assay in all cases: inhibition of tumour cell growth, NCI panel, 48 h
[1] = tested on: LOX IMVI melanoma
[2] = tested on: NCI-H522 lung
[3] = tested on: NCI-H460 lung
[4] = tested on: RPMI-8226 leukemia
[5] = tested on: SN12C renal
[6] = tested on: HCC-2998 colon
[7] = tested on: HOP-92 NSCLC
[8] = tested on: CCRF-CEM leukemia
[9] = tested on: MCF7 breast
[10] = tested on: DU-145 prostate

| SMILES | TGI [1] | TGI [2] | TGI [3] | TGI [4] | TGI [5] | TGI [6] | TGI [7] | TGI [8] | GI50 [9] | TGI [9] | GI50 [1] | GI50 [10] | TGI [10] | GI50 [2] | GI50 [3] | GI50 [4] | GI50 [5] | GI50 [6] | GI50 [8] | GI50 [7] |
| --- | --- | --- | --- | --- | --- | --- | --- | --- | --- | --- | --- | --- | --- | --- | --- | --- | --- | --- | --- | --- |
| COc1ccc(C23C(=O)c4ccccc4N2O[C@H]2C(=O)N(c4ccccc4)C(=O)[C@H]23)cc1 (stereo partly drawn) | > 100 µM | 87.3 µM | > 100 µM | > 100 µM | > 100 µM | > 100 µM | > 100 µM | > 100 µM |  |  |  |  |  |  |  |  |  |  |  |  |
| C[C@H](NC(=O)[C@@H](C)N)[C@H](Oc1ccc2c(cnn2-c2ccc(F)cc2)c1)c1ccc2c(c1)OCCO2 | 3.41 µM | 3.78 µM | 3.15 µM | 3.75 µM | 4.27 µM | 3.66 µM |  | 4.6 µM | 1.43 µM | 3.71 µM | 1.78 µM | 2.02 µM | 5.01 µM | 1.9 µM | 1.56 µM | 1.17 µM | 1.29 µM | 1.78 µM | 1.49 µM |  |
| Cc1nnn[n-]1.N.N.N.N.N.[Cl-].[Co+3] | > 100 µM | > 100 µM | > 100 µM | > 100 µM | > 100 µM | > 100 µM | > 100 µM | > 100 µM |  |  | > 100 µM |  |  | > 100 µM | > 100 µM | > 100 µM | > 100 µM | > 100 µM | > 100 µM | > 100 µM |
| O=C1CC(O)CC(=O)C1=C(O)CCCCCCCCCCc1ccccc1 (stereo not drawn) | > 100 µM | > 100 µM | > 100 µM | > 100 µM | > 100 µM | > 100 µM | > 100 µM | > 100 µM |  |  |  |  |  |  |  |  |  |  |  |  |
| O=C(O)CCC(=O)N1c2ccccc2CC1c1c[nH]c2ccccc12 (stereo not drawn) | > 100 µM | > 100 µM | > 100 µM | > 100 µM | > 100 µM | > 100 µM | > 100 µM | > 100 µM |  |  |  |  |  |  |  |  |  |  |  |  |
| O=C1N(C2CCCCC2)CC12CCCCC2 | > 100 µM | > 100 µM | > 100 µM | > 100 µM | > 100 µM | > 100 µM | > 100 µM | > 100 µM |  |  |  |  |  |  |  |  |  |  |  |  |
| CC1=C(c2ccccc2)C(c2ccccc2)=C(c2ccccc2)C2(c3ccccc3)C(=O)C(C)CN12 (stereo not drawn) | > 100 µM | 72.4 µM | > 100 µM | > 100 µM | > 100 µM | > 100 µM |  |  |  |  |  |  |  |  |  |  |  |  |  |  |
| N.N.N.N.N.NC(=O)c1nn[n-]n1.[Cl-].[Co+3] | > 100 µM |  | > 100 µM | > 100 µM | > 100 µM | > 100 µM | > 100 µM | > 100 µM |  |  | > 100 µM |  |  |  | > 100 µM | > 100 µM | > 100 µM | > 100 µM | > 100 µM | > 100 µM |
| COc1ccc(/C=C/C(=O)c2cc(OC)c(OC)c(OC)c2)cc1OCc1cn(Cc2ccc(F)cc2)nn1 | 18.7 µM | 5.22 µM | 15.4 µM | 6.3 µM | > 100 µM | 11.5 µM |  | 8.66 µM | 2.43 µM | > 100 µM | 2.75 µM | 2.59 µM | 6.64 µM | 1.74 µM | 3.3 µM | 1.7 µM | 3.12 µM | 3.42 µM | 2.14 µM |  |
| CC1(C)O[C@H]2[C@H](O)C[C@](O)(CO)C[C@H]2O1 |  | > 100 µM | > 100 µM | > 100 µM | > 100 µM |  | > 100 µM |  |  |  |  |  |  |  |  |  |  |  |  |  |
| O=c1[nH]nnc2c1ncn2C1OC(CO)C(O)C1O (stereo not drawn) | > 100 µM | > 100 µM | > 100 µM | > 100 µM | > 100 µM | > 100 µM |  | > 100 µM | 17.3 µM | > 100 µM | 2.23 µM | 1.38 µM | > 100 µM | 6.49 µM | 2.82 µM | 6.71 µM | 38.3 µM | 4.12 µM | 3.19 µM |  |
| O=C(COc1ccc(Cl)cc1)N1N=C(c2ccc(Cl)cc2)CC1(O)c1ccccc1 (stereo not drawn) | 26.6 µM | 50.2 µM | 35.7 µM | > 37.6 µM | 11.4 µM | > 100 µM | 44.1 µM | > 100 µM |  |  |  |  |  |  |  |  |  |  |  |  |
| CCCCCCCCNc1cc2c3c(c1)CCCN3CCC2 | 28.5 µM | 6.47 µM | 9.18 µM | > 100 µM | 14.7 µM | 26.8 µM |  | > 100 µM | 2.98 µM | 13 µM | 1.57 µM | 2.61 µM | 12.8 µM | 0.594 µM | 2.66 µM | 5.55 µM | 2.56 µM | 5.41 µM | 1.63 µM |  |
| N.N.N.N.[Co+3].[N-]=[N+]=[N-].[N-]=[N+]=[N-].[N-]=[N+]=[N-] | > 100 µM | > 100 µM | > 100 µM | > 100 µM | > 100 µM | > 100 µM | > 100 µM | > 100 µM |  |  | > 100 µM |  |  | 39.7 µM | > 100 µM | > 100 µM | > 100 µM | > 100 µM | 61.1 µM | 19 µM |
| CCc1ccccc1NC(=O)C1=C(C)NC(C)=C(C(=O)Nc2ccccc2CC)C1c1ccccc1Cl | > 100 µM | > 100 µM | > 100 µM | > 100 µM | > 100 µM | > 100 µM | > 100 µM | > 100 µM |  |  |  |  |  |  |  |  |  |  |  |  |
| O=C(Oc1cccc(F)c1OC(=O)c1cccc(O)c1)c1cccc(O)c1 | > 100 µM | 48.8 µM | > 100 µM | > 100 µM | > 100 µM | 84.5 µM | > 100 µM |  | 34.9 µM | > 100 µM | 13 µM | 44.7 µM | > 100 µM | 13.4 µM | 11.6 µM | 14.5 µM | 56.6 µM | 27.5 µM |  | 46.6 µM |
| O=C(c1ccccc1)c1ccccc1-c1ccccc1 | > 100 µM | 4.06 µM | 18.2 µM | 52 µM | > 100 µM | 34.5 µM | 47.1 µM |  | 2.97 µM | > 100 µM | 5.96 µM | 3.36 µM | 38.2 µM | 0.74 µM | 3.35 µM | 4.91 µM | 8.46 µM | 6.14 µM |  | 3.36 µM |
